Here are results for one compound from patent publication US20240189307A1, “METHODS OF STABILIZING THE NEURONAL PROTEOME AGAINST COLLAPSE AND PROTECTING VASCULAR CELLS” (ALBERT EINSTEIN COLLEGE OF MEDICINE, priority 2021, published 2024).

The test system of this assay is PS19 mice (tau P301S). The experiment in a line: PS19 mouse model of Frontotemporal dementia-related proteotoxicity, oral daily CA. The format is in vivo. The procedure:
FIG. 11. Chemical activation of CMA improves behavior and neuropathology in a mouse model of Frontotemporal dementia-related proteotoxicity. (A) Schematic of regimen of CMA activator (CA) administration to mice overexpressing human P301S tau (PS19). (B, C) Spontaneous locomotion in an open field of 9-month-old CTR or PS19 mice administered vehicle (Veh) or CA. Representative tracks (B) and total distance traveled in 10 min (C). (D-H) Immunostaining for MC1 tau in the hippocampus, the amygdala and the piriform cortex of 9 months old CTR, PS19 +/− CA. Representative images of the indicated brain regions (D). Scale bars: hippocampus: 500 μm, amygdala and piriform cortex: 200 μm. Quantification of the area stained in the hippocampus (E), (F-J) Immunoblots for tau and phosphorylated tau. Representative immunoblots and densitometric quantifications for the indicated proteins: S422-phosphorylated tau (G), S202/T205-phosphorylated tau (AT8) (H), MC1 tau (I) and total tau (J). (K-M) Immunostaining for Iba1 (K) and quantification of average cell size in the hippocampus (L) and the piriform cortex (M). Scale bars: hippocampus: 500 μm and piriform cortex: 200 μm. Data are mean+s.e.m. Individual values are shown for n=9-10 mice per genotype and treatment in C, E, G-M). Comparisons were made using one-way ANOVA followed by Tukey's post-hoc analysis (C, E, G, I-M) or Kruskal-Wallis test followed by Dunn's post hoc test (H). *p<0.05, **p<0.005, ***p<0.0005.
Male wild-type mice (C57BL/6J) or transgenic for CaMKIIα-Cre (B6.Cg-Tg(Camk2α-cre)T29-1Stl/J, Jackson Laboratory), LAMP-2A^flox/flox (Schneider et al., 2014), Tau^P301L (line pR5), Tg (APP^Swe; PS2^N141I; Tau^P301L), PS19 (Tau^P301S) (Yoshiyama et al., 2007) and Atg7^f/f were used in the study. Conditional LAMP-2A deletion was generated by breeding LAMP-2A^flox/flox with the transgenic Cre mice of interest. Knockout for L2A in the whole body (L2A^−/−) was generated by insemination of a wild-type female with spermatozoids with L2A floxed to excise this gene in all tissues in the offspring. Male littermate wild type and only L2A^f/f were separately analyzed for each test and because no differences were detected among them, they were grouped in the results as “control” (CTR) for the experimental group (^CamKII[…] CreL2A^f/f or L2A^−/−). All mice were genotyped at weaning and genotyping was re-confirmed postmortem to correct for any possible misplacement during husbandry. Mice were all in the C57BL/6J background and maintained under specific pathogen-free conditions in ventilated cages with no more than 5 mice per cage. Only males were used in this study due to the complexity in generating the quadruple transgenic mouse model with L2A knock out in homozygosis (for which we took advantage of the location of the Lamp2 gene in the X chromosome). Age of the animals was 4-6 months in most experiments except when otherwise indicated in text, figures and figure legends. Animals were maintained at 19-23° C. in 12 h light/dark cycle. Mice were fed ad libitum. CA77.1 was administered as sucralose jelly pellets for a daily dose of 30 mg/Kg body weight whereas the vehicle treated group received the same sucralose jelly pellet without drug. Briefly, for preparation of the jelly pellets the final amount of the compound per day (adjusted per animal weight) was dissolved in ethanol and then mixed with a warm gelatin solution (100 mg/ml, 10 mg/ml sucralose in water), that was poured into 24 well flat bottom plates for solidification. To avoid animal stress and competition for the pellets, animals were separated with a grid spacer in the same cage that they were housed, eating of the pellet was monitored and the spacer was removed as soon as all mice consumed the pellet (average time 2 min). Sentinel animals were included in each study to determine brain exposure at the end of treatment. These animals received the same batch of jelly pellets in parallel to the experimental group. […]

Take `CC(=O)Nc1ccc(-c2cnc3cc(Cl)ccc3n2)cc1` [CA77.1]: the “spontaneous locomotion in open field (locomotor hyperactivity)” value (30 mg/kg body weight oral daily for 6 months from 3 months of age) is “normalized the previously described locomotor hyperactivity of PS19 mice to control levels”. Moreover, for the setting “30 mg/kg oral daily, 6 months”, the “immunoblot levels of aberrant, phosphorylated, oligomeric and insoluble tau” value is “lower levels of conformationally aberrant, S422 and AT8 phosphorylated, oligomeric and insoluble forms of tau”; the “total levels of human tau” value is given as “did not reduce total levels of human tau”. The “number of microglial cells and large Iba1-positive dystrophic cells” value (hippocampus and piriform cortex, 30 mg/kg oral daily, 6 months) is given as “reduced upon CA treatment”. Further, for the setting “hippocampus, amygdala and piriform cortex, 30 mg/kg oral daily, 6 months”, the “MC1 pathogenic tau conformations, levels and number of neurons” value is “reduced the levels and number of neurons containing pathogenic tau conformations”. Moreover, the “mice with tau Type III pathology (S202/T205, AT8 staining)” value (hippocampus, 30 mg/kg oral daily, 6 months, vehicle 60%) worked out at 10%.
